Tests used:
[1] = test system: RPMI-8226 subcutaneous xenograft; assay: RPMI-8226 xenograft tumor model; conditions: after 42 days; TCH-165 100 mg/kg bid oral; bortezomib 0.375 reduced to 0.09 mg/kg i.v. 3X per week
[2] = test system: primary human MM cells of newly diagnosed patient; assay: Primary cell viability, CellTiter-Glo, 72 h
Text: (§1) White blood cells (WBCs) were separated from red blood cells by the Ficoll density gradient. Multiple myeloma cells were then isolated from WBCs using human CD138 affinity magnetic beads (Miltenyi Biotec; cat#130-093-062; Gaithersburg, MD, USA) following the manufacturer’s protocol. Cells were cryopreserved in 10% DMSO in FBS. Revived cells were maintained in an RPMI medium with 10% FBS for 10 days prior to treatment. […] Cells were equilibrated to RT and CellTiter-Glo (Promega; Madison, WI, USA) solution (100 μL) was added and incubated with shaking for 10 min at RT. The assay plate was then allowed to equilibrate for 5 min at RT and luminescent readings were taken on a SpectraMax® M5. Data are presented as a percentage of the vehicle control for each experimental condition, after background subtraction. Error bars represent SD for triplicate wells.

[3] = test system: primary cells from a BTZ refractory MM patient; assay: Primary cell viability, CellTiter-Glo, 72 h; conditions: Homo sapiens
Text: as §1

CC(C)C[C@H](NC(=O)[C@H](Cc1ccccc1)NC(=O)c1cnccn1)B(O)O [bortezomib, reference compound]
average tumor volume [1]: 771.41 (±129.35) mm^3
CC50 [2]: 4 nM
CC50 [3]: > 1000 nM

Source: PMC9138505, “Small Molecule 20S Proteasome Enhancer Regulates MYC Protein Stability and Exhibits Antitumor Activity in Multiple Myeloma” (Biomedicines, 2022)
